From patent US9918991B2, “Topical antimicrobial compositions and methods of using same” (Hydromer, Inc., priority 2010, dated 2018)

What was measured:
bacteria [1] = assay: Bacteria growth inhibition on the hoof (Test Method MCR 3.0 with actual hoof material); type: cell-based; conditions: aqueous solution 0.25 to 0.5%
Text: (§1) Comparative Antimicrobial Testing of Example 4 with Cosmetic Dyes According to Test Method MCR 3.0 with Actual Hoof Material

fungi = assay: Fungi growth inhibition on the hoof (Test Method MCR 3.0 with actual hoof material); type: cell-based; conditions: aqueous solution 0.25 to 0.5%
Text: as §1

bacteria [2] = assay: Growth / inhibition activity on a hoof surface; type: cell-based; conditions: 0.2% alone
[3] = tested on: Arcanobacterium pyogenes (ATCC#9731 and ATCC#19411); assay: MIC Test against Arcanobacterium pyogenes under anaerobic conditions (TOXIKON); type: cell-based
Procedure: MIC Test of example 4 against Arcanobacterium pyogenes (ATCC#9731 and ATCC#19411) under anaerobic conditions were conducted by the TOXIKON.
Under the same conditions as mentioned in Example 5 conducted by TOXIKON the MIC of a 10% copper sulfate solution (commonly used in hoof baths worldwide) was determined.

T. mentagrophytes = assay: Hoof samples submerged, washed to simulate leaching, overlaid with T. mentagrophytes agar; type: cell-based; conditions: 10 wt. % solution; hoof submerged 15 seconds, washed two hours, 3 and 6 days
Procedure: (§2) Hoof samples were submerged for 15 seconds in (1) the composition of the invention (i.e., 4:1 of cosmetic dye:Phenoxyethanol, total amount about 0.3 wt. %); (2.1) a 10 wt. % copper sulfate (2.2) a 10 wt. % zinc sulfate solution; (3) untreated as a control. The samples were then washed for two hours to simulate leaching. The samples were then placed into melted PA agar to solidify. Melted agar containing 10E5 CFU/ml of T. mentagrophytes was then added and incubated at room temperature for 3 and 6 days.
as §2, with “antimicrobial” for “cosmetic”, “about 0.21 wt. % or” for “about”, “(2)” for “(2.1)”, “or” for “(2.2) a”, “solution; or” for “solution;”

[4] = Influence of hoof bath contamination by dirt and manure on effectiveness
[5] = tested on: digital dermatitis lesion (DDL); assay: Footbath study in a large commercial dairy farm, digital dermatitis lesions; type: in vivo, cows; conditions: study 1; 5% solution, twice weekly; mixed logistic regression
Procedure: The study was conducted in a large commercial dairy farm. […] The adjusted odds of digital dermatitis lesion (DDL) throughout the study period were analyzed by mixed logistic regression model.

With CN(C)c1ccc(C(=C2C=CC(=[N+](C)C)C=C2)c2ccc(N(C)C)cc2)cc1.[Cl-] [Gentian Violet, N-[4[Bis[4-(dimethylamino)-phenyl]methylene]-2,5-cyclohexadien-1-ylidene]-N-methyl-methanaminium chloride] the “bacteria growth inhibition on the hoof” value (bacteria [1]) was 90% and the “fungi growth inhibition on the hoof” value (fungi) was 80%.
For CN(C)c1ccc2nc3ccc(=[N+](C)C)cc-3sc2c1 [Methylene Blue], the “bacteria growth inhibition on the hoof” value (bacteria [1]) was 60% and the “fungi growth inhibition on the hoof” value (fungi) was 50%.
With Cc1cc2nc3ccc(N(C)C)cc3[s+]c2cc1N.[Cl-] [Toluidine Blue] the “bacteria growth inhibition on the hoof” value (bacteria [1]) was 80%, the “fungi growth inhibition on the hoof” value (fungi) was 50% and the “growth on a hoof surface” value (bacteria [2]) was “bacterial growth”.
In the case of O=S(=O)([O-])[O-].[Cu+2] [copper sulfate], the “MIC (concentration giving about 100% reduction / kill)” value ([3]; anaerobic conditions, both strains) is reported as “at least 0.078%”, the kill rate ([3]; concentration at least 0.078%, both strains) is reported as ~100% and the “required concentration in comparison to a solution according to example 4” value ([3]; to control Arcanobacterium pyogenes) is reported as “at least 8 times”. For the same compound, the microbial growth (T. mentagrophytes) was “intense microbial growth” and the “loses effectiveness after contamination” value ([4]; at 2.5% and 5% concentrations, FIG. 1) was ≤ 4 h.
In the case of C=O [formalin], the “odds of DDL compared with the Dragonhyde group” value [5] is reported as 1.36 times higher.
For O=CCCCC=O [glutaraldehyde], the “loses effectiveness after contamination” value ([4]; at 2% concentration, FIG. 3) was ≤ 24 h.
With O=S(=O)([O-])[O-].[Zn+2] [zinc sulfate] the microbial growth (T. mentagrophytes) was “intense microbial growth”.
In the case of benzalkonium chloride, the “loses effectiveness after contamination” value ([4]; at 1% concentration, FIG. 4) is reported as ≤ 24 h.
